In ChEMBL document CHEMBL3393038, “Prenylated flavonoids and resveratrol derivatives isolated from Artocarpus communis with the ability to overcome TRAIL resistance” (2015):
Calls of active or inactive are those of the source. The calls are words filed in the database; no cut-off is given here.

How the values were obtained:
[1] = system: AGS; assay: Induction of apoptosis in TRAIL-resistant human AGS cells assessed as decrease in cell viability at 40 uM after 24 hrs in presence of TRAIL (reference value: 9%); type: functional
[2] = system: AGS; assay: Induction of apoptosis in TRAIL-resistant human AGS cells assessed as decrease in cell viability at 2 uM after 24 hrs in presence of TRAIL (reference value: 9%); type: functional
[3] = system: AGS; assay: Induction of apoptosis in TRAIL-resistant human AGS cells assessed as decrease in cell viability at 10 uM after 24 hrs in presence of TRAIL (reference value: 9%); type: functional
[4] = system: AGS; assay: Induction of apoptosis in TRAIL-resistant human AGS cells assessed as decrease in cell viability at 17.5 uM after 24 hrs in presence of TRAIL (reference value: 9%); type: functional
[5] = system: AGS; assay: Induction of apoptosis in TRAIL-resistant human AGS cells assessed as decrease in cell viability at 5 uM after 24 hrs in presence of TRAIL (reference value: 9%); type: functional
[6] = system: AGS; assay: Induction of apoptosis in TRAIL-resistant human AGS cells assessed as decrease in cell viability at 20 uM after 24 hrs in presence of TRAIL (reference value: 9%); type: functional
[7] = system: AGS; assay: Induction of apoptosis in TRAIL-resistant human AGS cells assessed as decrease in cell viability at 3 uM after 24 hrs in presence of TRAIL (reference value: 9%); type: functional
[8] = system: AGS; assay: Induction of apoptosis in TRAIL-resistant human AGS cells assessed as fold increase in caspase 3/7 at 5 uM after 24 hrs by Caspase-Glo 3/7 assay kit; type: functional
[9] = system: AGS; assay: Induction of apoptosis in TRAIL-resistant human AGS cells assessed as fold increase in caspase 3/7 at 3 uM after 24 hrs by Caspase-Glo 3/7 assay kit; type: functional
[10] = system: AGS; assay: Induction of apoptosis in TRAIL-resistant human AGS cells assessed as fold increase in caspase 3/7 at 3 uM after 24 hrs by Caspase-Glo 3/7 assay kit in presence of TRAIL; type: functional
[11] = system: AGS; assay: Induction of apoptosis in TRAIL-resistant human AGS cells assessed as population of apoptotic cells after 6 hrs by annexin-V-FLOUS/ propidium iodide staining based flow cytometry in presence of TRAIL; type: functional
[12] = system: AGS; assay: Induction of apoptosis in TRAIL-resistant human AGS cells assessed as population of apoptotic cells after 6 hrs by annexin-V-FLOUS/ propidium iodide staining based flow cytometry in presence of pan-caspase inhibitor z-VAD-FMK; type: functional
[13] = system: AGS; assay: Induction of apoptosis in TRAIL-resistant human AGS cells assessed as population of apoptotic cells after 6 hrs by annexin-V-FLOUS/ propidium iodide staining based flow cytometry; type: functional
[14] = system: AGS; assay: Induction of apoptosis in TRAIL-resistant human AGS cells assessed as increase in p53 protein level at 3 uM after 6 hrs by Western blotting analysis; type: functional, cell-based
[15] = system: AGS; assay: Induction of apoptosis in TRAIL-resistant human AGS cells assessed as increase in death receptor 5 protein level at 3 uM after 6 hrs by Western blotting analysis; type: functional
[16] = system: AGS; assay: Induction of apoptosis in TRAIL-resistant human AGS cells assessed as ROS-mediated increase in death receptor 5 protein level at 3 uM after 6 hrs pretreated with NAC by Western blotting analysis; type: functional, cell-based
[17] = system: AGS; assay: Induction of mitochondrial membrane depolarization in human AGS cells assessed as depolarized cells after 24 hrs by JC-1 staining-based flow cytometric analysis (reference value: 27.1%); type: functional
[18] = system: AGS; assay: Induction of apoptosis in TRAIL-resistant human AGS cells assessed as fold increase in caspase 3/7 at 5 uM after 24 hrs by Caspase-Glo 3/7 assay kit in presence of TRAIL; type: functional
[19] = system: AGS; assay: Induction of apoptosis in TRAIL-resistant human AGS cells assessed as decrease in cell viability at 7.5 uM after 24 hrs in presence of TRAIL (reference value: 9%); type: functional

CC(C)=CCc1c(-c2ccc(O)cc2O)oc2cc3c(c(O)c2c1=O)C=CC(C)(C)O3 [CUDRAFLAVONE B]
Activity [1]: 27%

CC(C)=CCc1c2c(c3oc(-c4cc(O)c(O)cc4O)c(CC=C(C)C)c(=O)c3c1O)C=CC(C)(C)O2
Activity [2]: 46%

C=C(C)[C@H]1Cc2c(oc3c4c(cc(O)c3c2=O)OC(C)(C)C=C4)-c2c(O)cc(O)c(O)c21 [ARTOBILOXANTHONE]
Activity [3]: 32%

CC(C)=CCc1c(-c2ccc(O)cc2O)oc2c3c(cc(O)c2c1=O)OC(C)(C)C=C3 [MORUSIN]
Activity [1]: 25%

O=c1cc(-c2ccc(O)c(O)c2)oc2cc(O)cc(O)c12 [LUTEOLIN]
Activity [4]: 9%

CC(C)=CCC/C(C)=C/Cc1c(O)c(CC=C(C)C)c(O)c2c(=O)c(CC=C(C)C)c(-c3cc(O)c(O)cc3O)oc12
Activity [5]: 30%

CC(C)=CCc1cc(/C=C/c2cc(O)cc(O)c2)cc(CC=C(C)C)c1O
Activity [6]: 25%

CC(C)=CCc1c(-c2cc(O)c(O)cc2O)oc2c3c(cc(O)c2c1=O)OC(C)(C)C=C3 [ARTONIN E]
Activity [7]: 44% | fold change (FC) [8]: 11.1 | fold change (FC) [9]: 3.7 | fold change (FC) [10]: 12.2 | inhibition (INH) [11]: 32.7% | inhibition (INH) [12]: 2.9% | inhibition (INH) [13]: 3.6% | Activity [14]: Active | fold change (FC) [15]: 1.9 | Activity [16]: inactive | Activity [17]: 58.4% | fold change (FC) [18]: 34.3

CC(C)=CCc1c(-c2cc(O)c(O)cc2O)oc2c(CC=C(C)C)c3c(c(O)c2c1=O)C=CC(C)(C)O3 [HETEROPHYLLIN]
Activity [2]: 31%

C=C(C)[C@H]1Cc2c(oc3c(CC=C(C)C)c(O)c(CC=C(C)C)c(O)c3c2=O)-c2c(O)cc(O)c(O)c21 [ARTORIGIDIN A]
Activity [19]: 26%

CC(C)=CCc1c(O)c(CC=C(C)C)c2oc(-c3cc(O)c(O)cc3O)c(CC=C(C)C)c(=O)c2c1O
Activity [19]: 30%

COc1c(/C=C/c2cc(O)cc(O)c2)cc(CC=C(C)C)c(O)c1CC=C(C)C
Activity [1]: 40%
